The melting point is the temperature, or range, at which the solid turns liquid.

Where a name gives a salt, the structure may show the parent alone.

`CN(C)c1ccc(-c2ccc3c(c2)C=C(C(=O)Nc2ccc(CP4(=O)CCCCC4)cc2)CCO3)cc1.Cl`: the melting point was in the range of 162 to 163 °C. To `Cc1ccc(-c2ccc3c(c2)C=C(C(=O)Nc2ccc(C(=O)C4CCCCN4C)cc2)CCO3)cc1` (centres unmarked) belongs 162 to 163 °C; to `Cc1ccc(-c2ccc3c(c2)C=C(C(=O)Nc2ccc(C[N+](C)(C)C4CCOCC4)cc2)CCO3)cc1.[Cl-]`, 232 to 237 °C (dec.).

`COc1ccc(CCN(C)Cc2ccc(NC(=O)/C=C/c3cccc(-c4ccc(C)cc4)c3)cc2)cc1OC.Cl` displayed a melting point of 214 to 217 °C. To `Cc1ccc(-c2ccc3c(c2)C=C(C(=O)Nc2ccc(C[N+]4(C)CCCCC4)cc2)CCO3)cc1` (as salt: chloride) [Compound 97, 1—(N-(7—(4-methylphenyl)-2,3-dihydro-1-benzoxepin-4-carbonyl)-4-aminobenzyl)-1-methylpiperidinium chloride] belongs 231 to 232 °C; to `CCOc1ccc(-c2ccc3c(c2)C=C(C(=O)Nc2ccc(C[N+](C)(C)C4CCOCC4)cc2)CCO3)cc1` (as salt: chloride) [Compound 250, N-(4-(((7-(4-ethoxyphenyl)-2,3-dihydro-1-benzoxepin-4-yl)carbonyl)amino)benzyl)-N,N-dimethyl-N-(4-tetrahydropyranyl)ammonium chloride], 200 to 204 °C. The compound `Cc1ccc(-c2ccc3c(c2)C=C(C(=O)Nc2ccc(C[N+]4(C)CCCCC4)cc2)CC3)cc1` (as salt: iodide) [Compound 16, 1-methyl-1-[4-[7—(4-methylphenyl)-3,4-dihydronaphthalene-2-carboxamido]benzyl]piperidinium iodide] displayed a melting point of 202 to 204 °C. Take `Cc1ccc(-c2cccc(/C=C/C(=O)Nc3ccc(C[N+]4(C)CCCCC4)cc3)c2)cc1` (as salt: iodide) [Compound 72, (E)-1-methyl-1-[4—(3—(4-methylphenyl)cinnamamido)benzyl]-piperidinium iodide]: the melting point lay within 176 to 178 °C. The result for `Cc1ccc(-c2ccc3c(c2)C=C(C(=O)Nc2ccc(C[N+]4(C)CCCCC4)cc2)CCC3)cc1` (as salt: iodide) [Compound 92, 1—(N-(2—(4-methylphenyl)-6,7-dihydro-5H-benzocycloheptene-8-carbonyl)-4-aminobenzyl)-1-methylpiperidinium iodide] reads 220 to 221 °C (dec.). To `Cc1ccc(-c2ccc3c(c2)C=C(C(=O)Nc2ccc(C[N+]4(C)CCCCC4)cc2)CCS3)cc1` (as salt: iodide) [Compound 94, 1—(N-(7—(4-methylphenyl)-2,3-dihydro-1-benzo-thiepine-4-carbonyl)-4-aminobenzyl)-1-methyl-piperidinium iodide] belongs 196 to 197 °C. To `Cc1ccc(-c2ccc3c(c2)C=C(C(=O)Nc2ccc(C[N+]4(C)CCCCC4)cc2)CCO3)cc1` (as salt: iodide) [Compound 96, 1—(N-(7—(4-methylphenyl)-2,3-dihydro-1-benzoxepin-4-carbonyl)-4-aminobenzyl)-1-methylpiperidinium iodide] belongs 227 to 228 °C (dec.); to `O=C(Nc1ccc(CN2CCCCC2)cc1)C1=Cc2cc(C3CCCCC3)ccc2CC1` [Compound 1, 7-cyclohexyl-N-[4—(piperidinomethyl)-phenyl]-3,4-dihydronaphthalene-2-carboxamide], 180 to 181 °C; to `O=C(Nc1ccc(CN2CCCCC2)cc1)C1=Cc2cc(-c3ccccc3)ccc2CC1` [Compound 4, 7-phenyl-N-[4—(piperidinomethyl)phenyl]-3,4-dihydronaphthalene-2-carboxamide], 163 to 164 °C. In the case of `CN(C)Cc1ccc(NC(=O)C2=Cc3cc(-c4ccccc4)ccc3CC2)cc1` [Compound 6, N-[4—(dimethylaminomethyl)-phenyl]-7-phenyl-3,4-dihydro-naphthalene-2-carboxamide], the melting point lay within 182 to 184 °C. The result for `O=C(Nc1ccc(CN2CCOCC2)cc1)C1=Cc2cc(-c3ccccc3)ccc2CC1` [Compound 8, N-[4—(morpholinomethyl)-phenyl]-7-phenyl-3,4-dihydronaphthalene-2-carboxamide] reads 186 to 187 °C; that for `O=C(Nc1ccc(CCN2CCCCC2)cc1)C1=Cc2cc(-c3ccccc3)ccc2CC1` [Compound 9, 7-phenyl-N-[4—(2-piperidinoethyl)phenyl]-3,4-dihydro-naphthalene-2-carboxamide], 157 to 159 °C; that for `Cc1ccc(-c2ccc3c(c2)C=C(C(=O)Nc2ccc(CN4CCCCC4)cc2)CC3)cc1` [Compound 14, 7—(4-methylphenyl)-N-[4—(piperidinomethyl)phenyl]-3,4-dihydronaphthalene-2-carboxamide], 187 to 189 °C. The result for `O=C(Nc1ccc(CN2CCCCC2)cc1)C1=Cc2cc(-c3ccc(F)cc3)ccc2CC1` [Compound 15, 7—(4-fluorophenyl)-N-[4—(piperidinomethyl)phenyl]-3,4-dihydronaphthalene-2-carboxamide] reads 175 to 176 °C; that for `Cc1ccc(-c2ccc3c(c2)C=C(C(=O)Nc2ccc(CN4CCC(Cc5ccccc5)CC4)cc2)CC3)cc1` [Compound 35, N-[4—(4-benzyl-piperidinomethyl)phenyl]-7—(4-methylphenyl)-3,4-dihydronaphthalene-2-carboxamide], 199 to 201 °C; that for `COc1ccccc1N1CCN(Cc2ccc(NC(=O)C3=Cc4cc(-c5ccc(C)cc5)ccc4CC3)cc2)CC1` [Compound 41, N-[4-[1—(2-methoxyphenyl)-4-piperazinylmethyl]phenyl]-7—(4-methylphenyl)-3,4-dihydronaphthalene-2-carboxamide], 202 to 205 °C. To `Cc1ccc(-c2ccc3c(c2)C=C(C(=O)Nc2ccc(CN4CCN(c5ncccn5)CC4)cc2)CC3)cc1` [Compound 42, 7—(4-methylphenyl)-N-[4-[1—(2-pyrimidyl)-4-piperazinylmethyl]-phenyl]-3,4-dihydronaphthalene-2-carboxamide] belongs 203 to 204 °C. In turn, `COc1cc(CN2CCN(Cc3ccc(NC(=O)C4=Cc5cc(-c6ccc(C)cc6)ccc5CC4)cc3)CC2)cc(OC)c1OC` [Compound 45, N-[4-[1—(3,4,5-trimethoxybenzyl)-4-piperazinylmethyl]-phenyl]-7—(4-methylphenyl)-3,4-dihydronaphthalene-2-carboxamide] yielded a melting point of 143 to 144 °C. For the compound `Cc1ccc(-c2ccc3c(c2)C=C(C(=O)Nc2ccc(CN4CCN(CCO)CC4)cc2)CC3)cc1` [Compound 46, N-[4-[1—(2-hydroxyethyl)-4-piperazinylmethyl]phenyl]-7—(4-methylphenyl)-3,4-dihydronaphthalene-2-carboxamide], the melting point lay in the range of 185 to 187 °C.

`Cc1ccc(-c2ccc3c(c2)C=C(C(=O)Nc2ccc(CNc4cccnc4)cc2)CC3)cc1` [Compound 47, 7—(4-methylphenyl)-N-[4-[N-(3-pyridyl)aminomethyl]phenyl]-3,4-dihydronaphthalene-2-carboxamide] came in with a melting point of 212 to 214 °C. The result for `Cc1ccc(-c2ccc3c(c2)C=C(C(=O)Nc2ccc(CNC(CO)CO)cc2)CC3)cc1` [Compound 48, N-[4-[(1,3-dihydroxy-2-propyl)aminomethyl]phenyl]-7—(4-methylphenyl)-3,4-dihydronaphthalene-2-carboxamide] reads 189 to 193 °C.

With `Cc1ccc(-c2ccc3c(c2)C=C(C(=O)Nc2ccc(CN4CCC(O)CC4)cc2)CC3)cc1` [Compound 49, N-[4—(4-hydroxypiperidinomethyl)phenyl]-7—(4-methylphenyl)-3,4-dihydronaphthalene-2-carboxamide], the melting point lay within 223 to 224 °C.

Compound `Cc1ccc(-c2ccc3c(c2)C=C(C(=O)Nc2ccc(CN4CCSCC4)cc2)CC3)cc1` [Compound 50, 7—(4-methylphenyl)-N-[4—(thiomorpholinomethyl)phenyl]-3,4-dihydro-naphthalene-2-carboxamide] registered a melting point of 178 to 180 °C. To `Cc1ccc(-c2ccc3c(c2)C=C(C(=O)Nc2ccc(CN(CCO)CCO)cc2)CC3)cc1` [Compound 51, N-[4-[N,N-bis(2-hydroxyethyl)-aminomethyl]phenyl]-7—(4-methylphenyl)-3,4-dihydronaphthalene-2-carboxamide] belongs 150 to 151 °C. To `Cc1ccc(-c2ccc3c(c2)C=C(C(=O)Nc2ccc(CSC4CCCCC4)cc2)CCO3)cc1` [Compound 53, N-(4—(cyclohexylthiomethyl)-phenyl)-7—(4-methylphenyl)-2,3-dihydro-1-benzoxepine-4-carboxamide] belongs 161 to 162 °C; to `Cc1ccc(-c2cccc(/C=C/C(=O)Nc3ccc(CN4CCN(Cc5ccc6c(c5)OCO6)CC4)cc3)c2)cc1` [Compound 57, (E)-N-[4-[1—(3,4-methylenedioxybenzyl)-4-piperazinylmethyl]phenyl]-3—(4-methylphenyl)cinnamamide], 204 to 207 °C.

The compound `O=C(Nc1ccc(CN2CCCCC2)cc1)c1ccc2ccc(-c3ccccc3)cc2c1` [Compound 58, N-[4—(piperidinomethyl)phenyl]-7-phenylnaphthalene-2-carboxamide] gave a melting point of 177 to 178 °C. In turn, `Cc1ccc(-c2ccc3c(c2)C=C(C(=O)Nc2ccc(CN4CCCCC4)cc2)C3)cc1` [Compound 60, N-[4—(piperidinomethyl)phenyl]-5—(4-methylphenyl)indene-2-carboxamide] gave a melting point of 219 to 220 °C. The result for `COc1ccc(N2CCN(Cc3ccc(NC(=O)/C=C/c4cccc(-c5ccc(C)cc5)c4)cc3)CC2)cc1` [Compound 62, (E)-N-[4-[1—(4-methoxy-phenyl)-4-piperazinylmethyl]phenyl]-3—(4-methylphenyl)cinnamamide] reads 207 to 208 °C; that for `Cc1ccc(-c2cccc(/C=C/C(=O)Nc3ccc(CN(C)CC#N)cc3)c2)cc1` [Compound 64, (E)-N-[4-[N-(cyanomethyl)-N-methylaminomethyl]phenyl]-3—(4-methylphenyl)cinnamamide], 163 to 165 °C; that for `Cc1ccc(-c2cccc(/C=C/C(=O)Nc3ccc(Cn4ccnc4)cc3)c2)cc1` [Compound 65, (E)-N-[4-[(imidazol-1-yl)methyl]phenyl]-3—(4-methylphenyl)cinnamamide], 198 to 200 °C.

The values above are taken from US6413947B1, “Anilide derivative, production and use thereof” (Takeda Chemical Industries, Ltd., priority 1997, dated 2002).
